From patent US12077503B2, “Substituted cyclic amides and their use as herbicides” (FMC CORPORATION, priority 2015, dated 2024)

Key:
Format in all cases: in vivo
rice (Oryra sativa) = test: Test B flooded paddy test; conditions: Oryza sativa, 250 g ai/ha, Flood; 0 to 100 scale where 0 is no effect and 100 is complete control; read-out: Rice plant response rating
In short: (§1)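 Plants at 2-leaf stage flooded to 3 cm above soil, with compounds applied directly to paddy water and that depth maintained. Plants kept in greenhouse 13–15 d. Visual rating versus controls on a 0 (no effect) to 100 (complete control) scale.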

[1] = tested on: barnyardgrass (Echinochloa crus-galli); test: Test B flooded paddy test; conditions: Echinochloa crus-galli, 250 g ai/ha, Flood; 0 to 100 scale where 0 is no effect and 100 is complete control; read-out: Barnyardgrass plant response rating
In short: as §1

[2] = tested on: ducksalad (Heteranthera limosa); test: Test B flooded paddy test; conditions: Heteranthera limosa, 250 g ai/ha, Flood; 0 to 100 scale where 0 is no effect and 100 is complete control; read-out: Ducksalad plant response rating
In short: as §1

[3] = tested on: sedge, umbrella (small-flower umbrella sedge, Cyperus difformis); test: Test B flooded paddy test; conditions: Cyperus difformis, 250 g ai/ha, Flood; 0 to 100 scale where 0 is no effect and 100 is complete control; read-out: Sedge, Umbrella plant response rating
In short: as §1

[4] = tested on: pigweed (Amaranthus retroflexus); test: Test A postemergence; conditions: Amaranthus retroflexus, post-emergence, 240 h
In short: (§2)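 In a loam soil and sand blend, planted seeds got a preemergence directed soil spray, and young plants at the one- to two-leaf stage, 2–10 cm high, got a postemergence application; ~10 d greenhouse hold; injury rated visually, 0 = none, 100 = complete control.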

Kochia (Kochia scoparia) [5] = test: Test A postemergence; conditions: Bassia scoparia, post-emergence, 240 h
In short: as §2

[6] = tested on: ragweed (common ragweed, Ambrosia elatior); test: Test A postemergence; conditions: Ambrosia artemisiifolia, post-emergence, 240 h
In short: as §2

[7] = tested on: ryegrass, Italian (Italian ryegrass, Lolium multiflorum); test: Test A postemergence; conditions: Lolium multiflorum, post-emergence, 240 h
In short: as §2

[8] = tested on: blackgrass (Alopecurus myosuroides); test: Test A postemergence; conditions: Alopecurus myosuroides, post-emergence, 240 h
In short: as §2

[9] = tested on: barnyardgrass (Echinochloa crus-galli); test: Test A postemergence; conditions: Echinochloa crus-galli, post-emergence, 240 h
In short: as §2

corn (Zea mays) = test: Test A postemergence; conditions: Zea mays, post-emergence, 240 h
In short: as §2

[10] = tested on: giant foxtail (Setaria faberii); test: Test A postemergence; conditions: Setaria faberi, post-emergence, 240 h
In short: as §2

[11] = tested on: wheat (Triticum aestivum); test: Test A postemergence; conditions: Triticum aestivum, post-emergence, 240 h
In short: as §2

[12] = tested on: pigweed (Amaranthus retroflexus); test: Test A preemergence; conditions: Amaranthus retroflexus, pre-emergence, 240 h, 0 to 100 scale where 0 is no effect and 100 is complete control, read-out: Pigweed plant response rating
Kochia (Kochia scoparia) [13] = test: Test A preemergence; conditions: Bassia scoparia, pre-emergence, 240 h, 0 to 100 scale where 0 is no effect and 100 is complete control, read-out: Kochia plant response rating
In short: as §2

[14] = tested on: ragweed (common ragweed, Ambrosia elatior); test: Test A preemergence; conditions: Ambrosia artemisiifolia, pre-emergence, 240 h, 0 to 100 scale where 0 is no effect and 100 is complete control, read-out: Ragweed plant response rating
In short: as §2

[15] = tested on: ryegrass, Italian (Italian ryegrass, Lolium multiflorum); test: Test A preemergence; conditions: Lolium multiflorum, pre-emergence, 240 h, 0 to 100 scale where 0 is no effect and 100 is complete control, read-out: Ryegrass, Italian plant response rating
In short: as §2

[16] = tested on: barnyardgrass (Echinochloa crus-galli); test: Test A preemergence; conditions: Echinochloa crus-galli, pre-emergence, 240 h, 0 to 100 scale where 0 is no effect and 100 is complete control, read-out: Barnyardgrass plant response rating
In short: as §2

[17] = tested on: giant foxtail (Setaria faberii); test: Test A preemergence; conditions: Setaria faberi, pre-emergence, 240 h, 0 to 100 scale where 0 is no effect and 100 is complete control, read-out: Foxtail, Giant plant response rating
In short: as §2

[18] = 125 g ai/ha, preemergence, approx. 10 d

Cc1c(F)cccc1NC(=O)[C@H]1C(=O)N(C)C[C@@H]1c1cc(C(F)F)cs1 [Compound 1089]
0%: pest or weed control at 250 g/ha (rice (Oryra sativa)) | pest or weed control at 250 g/ha [3] | pest or weed control at 125 g/ha ([4]; 125 g ai/ha, postemergence, visual injury on 0 to 100 scale (0 no effect, 100 complete control), approx. 10 d, read-out: Pigweed plant response rating) | pest or weed control at 31 g/ha ([4]; Postemergence, 31 g ai/ha, visual injury after approx. 10 d, 0 to 100 scale, 0 no effect, 100 complete control, read-out: Plant response rating, Pigweed) | pest or weed control at 125 g/ha (Kochia (Kochia scoparia) [5]; 125 g ai/ha, postemergence, visual injury on 0 to 100 scale (0 no effect, 100 complete control), approx. 10 d, read-out: Kochia plant response rating) | pest or weed control at 31 g/ha (Kochia (Kochia scoparia) [5]; Postemergence, 31 g ai/ha, visual injury after approx. 10 d, 0 to 100 scale, 0 no effect, 100 complete control, read-out: Plant response rating, Kochia) | pest or weed control at 31 g/ha ([6]; Postemergence, 31 g ai/ha, visual injury after approx. 10 d, 0 to 100 scale, 0 no effect, 100 complete control, read-out: Plant response rating, Ragweed) | pest or weed control at 125 g/ha ([7]; 125 g ai/ha, postemergence, visual injury on 0 to 100 scale (0 no effect, 100 complete control), approx. 10 d, read-out: Ryegrass, Italian plant response rating) | pest or weed control at 31 g/ha ([7]; Postemergence, 31 g ai/ha, visual injury after approx. 10 d, 0 to 100 scale, 0 no effect, 100 complete control, read-out: Plant response rating, Ryegrass, Italian) | pest or weed control at 31 g/ha ([8]; Postemergence, 31 g ai/ha, visual injury after approx. 10 d, 0 to 100 scale, 0 no effect, 100 complete control, read-out: Plant response rating, Blackgrass) | Corn plant response rating (crop injury, 0 = no effect, 100 = complete kill) at 31 g/ha (corn (Zea mays); Postemergence, 31 g ai/ha, visual injury after approx. 10 d, 0 to 100 scale, 0 no effect, 100 complete control) | plant injury at 31 g/ha ([11]; Postemergence, 31 g ai/ha, visual injury after approx. 10 d, 0 to 100 scale, 0 no effect, 100 complete control, read-out: Plant response rating, Wheat) | pest or weed control at 31 g/ha ([12]; 31 g ai/ha, Preemergence) | pest or weed control at 125 g/ha [12, 18] | pest or weed control at 31 g/ha (Kochia (Kochia scoparia) [13]; 31 g ai/ha, Preemergence) | pest or weed control at 31 g/ha ([14]; 31 g ai/ha, Preemergence) | pest or weed control at 31 g/ha ([15]; 31 g ai/ha, Preemergence)
60%: pest or weed control at 31 g/ha ([9]; Postemergence, 31 g ai/ha, visual injury after approx. 10 d, 0 to 100 scale, 0 no effect, 100 complete control, read-out: Plant response rating, Barnyardgrass) | pest or weed control at 125 g/ha [14, 18]
20%: pest or weed control at 125 g/ha ([6]; 125 g ai/ha, postemergence, visual injury on 0 to 100 scale (0 no effect, 100 complete control), approx. 10 d, read-out: Ragweed plant response rating) | pest or weed control at 125 g/ha (Kochia (Kochia scoparia) [13]; [18])
30%: pest or weed control at 125 g/ha ([8]; 125 g ai/ha, postemergence, visual injury on 0 to 100 scale (0 no effect, 100 complete control), approx. 10 d, read-out: Blackgrass plant response rating) | plant injury at 125 g/ha (corn (Zea mays); 125 g ai/ha, postemergence, visual injury on 0 to 100 scale (0 no effect, 100 complete control), approx. 10 d, read-out: Corn plant response rating) | plant injury at 125 g/ha ([11]; 125 g ai/ha, postemergence, visual injury on 0 to 100 scale (0 no effect, 100 complete control), approx. 10 d, read-out: Wheat plant response rating)
10%: pest or weed control at 125 g/ha [15, 18]
80%: pest or weed control at 31 g/ha ([10]; Postemergence, 31 g ai/ha, visual injury after approx. 10 d, 0 to 100 scale, 0 no effect, 100 complete control, read-out: Plant response rating, Foxtail, Giant)
85%: pest or weed control at 250 g/ha [2]
100%: pest or weed control at 31 g/ha ([17]; 31 g ai/ha, Preemergence) | pest or weed control at 125 g/ha [17, 18]
90%: pest or weed control at 250 g/ha [1] | pest or weed control at 125 g/ha ([9]; 125 g ai/ha, postemergence, visual injury on 0 to 100 scale (0 no effect, 100 complete control), approx. 10 d, read-out: Barnyardgrass plant response rating) | pest or weed control at 125 g/ha ([10]; 125 g ai/ha, postemergence, visual injury on 0 to 100 scale (0 no effect, 100 complete control), approx. 10 d, read-out: Foxtail, Giant plant response rating) | pest or weed control at 31 g/ha ([16]; 31 g ai/ha, Preemergence) | pest or weed control at 125 g/ha [16, 18]
